Assay results as given in article PMC6161302, “Oral Bioavailability of Kinsenoside in Beagle Dogs Measured by LC-MS/MS: Improvement of Ex Vivo Stability of a Lactone-Containing Compound” (Pharmaceutics, 2018).
Read-outs that look alike come from different tables or passages of the source.

Assays:
[1] = Method-validation stability of kinsenoside in beagle dog plasma under various storage conditions; format: in vitro ADME
Procedure: The stability of stock solutions (2.5 mg/mL for KD and 1 mg/mL for IS) and working solutions (125 and 50,000 ng/mL for KD and 500 ng/mL for IS) was evaluated at room temperature for 6 h and at −80 °C for 31 days. The matrix stability was evaluated from three replicates of each QC sample stored in different conditions using freshly prepared calibration standards. The QC samples were analyzed after storage on wet ice for 2 h (short-term stability) and at −80 °C for 21 days (long-term stability). The freeze–thaw stability was determined after freezing at −80 °C and thawing on wet ice for three cycles. To evaluate the post-preparative stability, QC samples were analyzed after being held in the autosampler for 24 h at 4 °C. The samples for stability evaluation were considered stable if the deviation was within ±15% of the nominal concentration.

[2] = Stability of KD in fresh dog whole blood; format: in vitro ADME, beagle dog
Procedure: (§1) The stability of KD in fresh dog whole blood and plasma was studied by decreasing pH, lowering temperature, and adding different esterase inhibitors. All experiments were performed in triplicate using three different lots of fresh dog whole blood or plasma. To decrease the pH of the matrixes, 1% formic acid (FA) or 1% AA was individually added to the fresh blank whole blood or plasma with a ratio of 1:9. Likewise, DDVP, NaF, and PMSF were separately added to fresh blank whole blood or plasma to obtain a final concentration of 50 mM. After 5 min pre-incubation, KD was spiked with pretreated whole blood or plasma to obtain final concentrations of 15, 150, and 1500 ng/mL. The whole blood mixture was maintained at room temperature or on wet ice for 2 h except for samples of time zero, which were centrifuged immediately to collect plasma, while the plasma mixture was maintained at room temperature or on wet ice for 0, 2, and 6 h. Then, the obtained plasma samples were cleaned up using the previously mentioned sample preparation procedures. The remaining percentage of KD was calculated by dividing the plasma concentration of KD under different incubation conditions by the concentration of time zero samples [13].

[3] = Pharmacokinetic and bioavailability study of KD in beagle dogs (intravenous and oral); format: in vivo, beagle dog; settings: for Tmax / AUC(0-t): beagle; for k el: read-out: λz (converted)
Text: The validated method was applied to a preclinical pharmacokinetic and bioavailability study of KD in beagle dogs following intravenous and oral administration. The study protocol (Project ID: HUST-D-201802004) was approved on 5 March 2018 by the Animal Ethics Committee in Tongji Medical College, Huazhong University of Science and Technology (Wuhan, China). Six beagle dogs (3 males and 3 females) weighing 10.0 ± 2.0 kg were purchased from Ruikesen Experimental Animal Co., Ltd. (Wuhan, China). All dogs were individually housed at a temperature of 25 °C and 50% relative humidity under a 12 h light/dark cycle. A laboratory standard diet and water were provided ad libitum. After overnight fasting with unlimited access to water, the six beagle dogs were randomly divided into two groups. One group was intravenously injected via lateral saphenous vein with 3 mg/kg KD, while the other group was given a single oral dose of 3 mg/kg KD. After a 7-day washout period, each group received the other treatment. For intravenous administration, blood samples (approximately 1 mL) were collected via cephalic vein into 3 mL K2EDTA-containing vacutainer tubes at pre-dose and at 0.083, 0.25, 0.5, 0.75, 1, 1.25, 1.5, 2, 2.5, 3, 4, and 5 h after administration. For oral administration, blood samples (approximately 1 mL) were collected at pre-dose and at 0.25, 0.5, 0.75, 1, 1.25, 1.5, 2, 2.5, 3, 4, 5, 6, and 7 h post-dose. Blood samples were maintained on wet ice and centrifuged under 4 °C at 3500 × g for 5 min to obtain plasma. Plasma samples were immediately transferred to pre-cooled plastic Eppendorf tubes and stored at −80 °C until analyzed.
The pharmacokinetic parameters were calculated using noncompartmental analysis by Phoenix WinNonlin software (Version 6.4, Pharsight Corporation, Princeton, NC, USA). The maximum plasma concentration (Cmax) and time to reach Cmax (Tmax) were obtained directly from the plasma concentration time course. The area under the plasma concentration versus time curve (AUC) from time zero to the last measured time point (AUC0–t) and from time zero to infinity (AUC0–∞) were estimated using the log-linear trapezoidal rule, while the elimination half-life (t1/2), the total body clearance (CL), and the apparent volume of distribution (Vd) were processed by Phoenix WinNonlin software. Oral bioavailability (F) was calculated using the formula F = (AUCpo/AUCiv) × (Doseiv/Dosepo).

liver microsomal enzyme = test system: liver microsomal enzyme; design: method as in doi:10.5478/MSL.2015.6.2.48; settings: cited from earlier work
[4] = design: method as in PMID 26686829; settings: cited from earlier work
[5] = Stability of KD in fresh dog plasma; format: in vitro ADME, beagle dog
Procedure: as §1

[6] = plasma samples after three freeze–thaw cycles, nominal 15 ng/mL
[7] = plasma samples after three freeze–thaw cycles, nominal 150 ng/mL
[8] = plasma samples after three freeze–thaw cycles, nominal 1500 ng/mL
[9] = plasma samples on wet ice for 2 h, nominal 15 ng/mL
[10] = plasma samples on wet ice for 2 h, nominal 150 ng/mL
[11] = plasma samples on wet ice for 2 h, nominal 1500 ng/mL
[12] = plasma samples stored at −80 °C for 21 days, nominal 15 ng/mL
[13] = plasma samples stored at −80 °C for 21 days, nominal 150 ng/mL
[14] = plasma samples stored at −80 °C for 21 days, nominal 1500 ng/mL
[15] = post-preparative samples stored at 4 °C for 24 h, nominal 15 ng/mL
[16] = post-preparative samples stored at 4 °C for 24 h, nominal 150 ng/mL
[17] = post-preparative samples stored at 4 °C for 24 h, nominal 1500 ng/mL
[18] = both sexes, dog, plasma, beagle dogs, intravenous, 3 mg/kg
[19] = both sexes, dog, plasma, beagle dogs, oral, 3 mg/kg

## O=C1C[C@@H](O[C@@H]2O[C@H](CO)[C@@H](O)[C@H](O)[C@H]2O)CO1 [kinsenoside, Kinsenoside]
[1]; [6]
  Accuracy (stability, % of nominal): 89.53%
  Calculated Conc.: 13.43 ± 0.46 ng/mL
[1]; [7]
  Accuracy (stability, % of nominal): 90.89%
  Calculated Conc.: 136.33 ± 4.50 ng/mL
[1]; [8]
  Accuracy (stability, % of nominal): 92.44%
  Calculated Conc.: 1386.67 ± 24.94 ng/mL
[1]; [9]
  Accuracy (stability, % of nominal): 95.11%
  Calculated Conc.: 14.27 ± 0.74 ng/mL
[1]; [10]
  Accuracy (stability, % of nominal): 93.87%
  Calculated Conc.: 140.80 ± 2.98 ng/mL
[1]; [11]
  Accuracy (stability, % of nominal): 91.61%
  Calculated Conc.: 1374.13 ± 24.63 ng/mL
[1]; [12]
  Accuracy (stability, % of nominal): 90.89%
  Calculated Conc.: 13.63 ± 0.36 ng/mL
[1]; [13]
  Accuracy (stability, % of nominal): 91.78%
  Calculated Conc.: 137.67 ± 2.62 ng/mL
[1]; [14]
  Accuracy (stability, % of nominal): 93.78%
  Calculated Conc.: 1406.67 ± 26.25 ng/mL
[1]; [15]
  Accuracy (stability, % of nominal): 89.47%
  Calculated Conc.: 13.42 ± 0.37 ng/mL
[1]; [16]
  Accuracy (stability, % of nominal): 91.67%
  Calculated Conc.: 137.50 ± 4.99 ng/mL
[1]; [17]
  Accuracy (stability, % of nominal): 88.89%
  Calculated Conc.: 1333.33 ± 34.60 ng/mL
[2]; 2 h incubation at room temperature
  KD remaining: 60%
[2]; 2 h incubation on wet ice, three concentration levels (15, 150, 1500 ng/mL)
  KD remaining: around 90%
[3]; both sexes, dog, plasma, iv, 3 mg/kg, beagle dogs
  Tmax: 5 min
[3]; both sexes, dog, plasma, iv, 3 mg/kg, beagle dogs, intravenous, 3 mg/kg, read-out: AUC0–t
  AUC(0-t): 6820 ± 295 ng·h/mL
[3]; both sexes, dog, plasma, iv, 3 mg/kg, beagle dogs, intravenous, 3 mg/kg, read-out: mean AUC0-t (converted)
  AUC(0-t): 114 ng·h/mL
[3]; both sexes, dog, plasma, po, 3 mg/kg, beagle dogs
  Tmax: ~62.4 min
[3]; both sexes, dog, plasma, po, 3 mg/kg, beagle dogs, oral, 3 mg/kg, read-out: AUC0–t
  AUC(0-t): 1880 ± 17.6 ng·h/mL
[3]; both sexes, dog, plasma, po, 3 mg/kg, beagle dogs, oral, 3 mg/kg, read-out: mean AUC0-t (converted)
  AUC(0-t): 31.3 ng·h/mL
[3]; [18]
  AUC(0-inf): 6830 ± 295 ng·h/mL
  Cmax: 11400 ng/mL
  Vd: 0.3 ± 0.0171 L/kg
  clearance: 7.33 mL/min/kg
  half-life: 28.2 ± 0.78 min
  k el: 0.000408 s⁻¹
[3]; both sexes, dog, plasma, beagle dogs, oral 3 mg/kg vs intravenous 3 mg/kg, read-out: Bioavailability (absolute oral)
  bioavailability: 27.6%
[3]; [19]
  AUC(0-inf): 1910 ± 42.5 ng·h/mL
  Cmax: 965 ± 59.7 ng/mL
  half-life: 54.9 ± 5.64 min
  k el: 0.000212 s⁻¹
[3]; comparison with literature values
  bioavailability of KD relative to the majority of extensively researched isoflavone glycosides: at least 4 fold
Liver microsomal enzyme
  stability against liver microsomal enzyme-associated metabolism: stable
[4]
  stability in rat plasma (ex vivo): unstable
[5]; dog plasma, 2 h incubation on wet ice
  KD remaining: more than 90%
[5]; neutral and acidified dog plasma, 6 h incubation on wet ice
  percentage remaining of KD: around 85%
